{"source": "ChEMBL document CHEMBL1201862", "about": "“PubChem BioAssay data set” (2004)", "key": {"Cannabinoid receptor 2 [1]": {"biological_target": "T1, Cannabinoid receptor 2 (Homo sapiens, UniProt P34972)", "T1 sequence (P34972 whole entry)": "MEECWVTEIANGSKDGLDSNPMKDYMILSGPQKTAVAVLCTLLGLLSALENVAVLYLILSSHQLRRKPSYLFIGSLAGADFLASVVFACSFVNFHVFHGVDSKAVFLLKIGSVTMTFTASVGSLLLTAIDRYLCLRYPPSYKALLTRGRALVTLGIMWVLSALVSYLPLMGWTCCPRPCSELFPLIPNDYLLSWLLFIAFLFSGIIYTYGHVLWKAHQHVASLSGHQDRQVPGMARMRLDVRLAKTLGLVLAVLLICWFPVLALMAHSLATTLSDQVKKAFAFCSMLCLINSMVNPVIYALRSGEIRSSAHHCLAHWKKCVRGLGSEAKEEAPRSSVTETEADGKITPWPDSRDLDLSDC", "assay": "SAR analysis of antagonists of the Cannabinoid Receptor 2 using an Image-Based Assay - Set 2. [Related pubchem assays (depositor defined):AID1961, AID1965]", "format": "functional"}, "Cannabinoid receptor 2 [2]": {"biological_target": "T1, Cannabinoid receptor 2", "assay": "SAR analysis of agonists of the Cannabinoid Receptor 2 using an Image-Based Assay - Set 2. [Related pubchem assays (depositor defined):AID1961, AID1965]", "format": "functional"}, "[3]": {"biological_target": "G-protein coupled receptor 55 (Homo sapiens, UniProt Q9Y2T6)", "sequence (Q9Y2T6 whole entry)": "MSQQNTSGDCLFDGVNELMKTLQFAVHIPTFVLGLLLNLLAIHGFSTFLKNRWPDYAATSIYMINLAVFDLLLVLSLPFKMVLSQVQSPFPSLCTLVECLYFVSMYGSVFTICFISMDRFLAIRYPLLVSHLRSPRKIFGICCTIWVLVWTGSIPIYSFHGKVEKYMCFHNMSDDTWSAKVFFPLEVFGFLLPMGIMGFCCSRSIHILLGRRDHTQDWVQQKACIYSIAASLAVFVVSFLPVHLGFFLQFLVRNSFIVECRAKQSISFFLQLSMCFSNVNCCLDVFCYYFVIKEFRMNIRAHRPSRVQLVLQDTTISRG", "assay": "SAR analysis of selective Agonists of GPR55 using an Image-Based Assay. [Related pubchem assays (depositor defined):AID1961, AID1965]", "format": "functional"}, "Cannabinoid receptor 1": {"biological_target": "Cannabinoid receptor 1 (Homo sapiens, UniProt P21554)", "sequence (P21554 whole entry)": "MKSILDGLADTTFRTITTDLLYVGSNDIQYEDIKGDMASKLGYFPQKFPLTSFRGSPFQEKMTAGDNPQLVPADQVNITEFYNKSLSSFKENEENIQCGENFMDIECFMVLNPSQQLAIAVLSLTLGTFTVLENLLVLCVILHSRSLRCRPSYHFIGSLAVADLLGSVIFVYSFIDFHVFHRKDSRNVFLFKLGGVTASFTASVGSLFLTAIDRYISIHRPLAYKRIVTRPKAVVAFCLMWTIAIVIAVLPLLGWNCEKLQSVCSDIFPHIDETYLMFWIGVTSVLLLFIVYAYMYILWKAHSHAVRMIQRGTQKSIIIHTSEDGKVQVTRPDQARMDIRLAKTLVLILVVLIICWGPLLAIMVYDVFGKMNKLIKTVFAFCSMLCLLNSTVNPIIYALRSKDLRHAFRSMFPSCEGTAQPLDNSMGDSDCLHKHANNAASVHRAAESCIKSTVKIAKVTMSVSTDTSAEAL", "assay": "SAR analysis of antagonists of the Cannabinoid Receptor 1 using an Image-Based Assay. [Related pubchem assays (depositor defined):AID1961, AID1965]", "format": "functional"}, "NS3": {"biological_target": "NS3 (Hepatitis C virus, UniProt A3EZJ3)", "sequence (A3EZJ3 whole entry)": "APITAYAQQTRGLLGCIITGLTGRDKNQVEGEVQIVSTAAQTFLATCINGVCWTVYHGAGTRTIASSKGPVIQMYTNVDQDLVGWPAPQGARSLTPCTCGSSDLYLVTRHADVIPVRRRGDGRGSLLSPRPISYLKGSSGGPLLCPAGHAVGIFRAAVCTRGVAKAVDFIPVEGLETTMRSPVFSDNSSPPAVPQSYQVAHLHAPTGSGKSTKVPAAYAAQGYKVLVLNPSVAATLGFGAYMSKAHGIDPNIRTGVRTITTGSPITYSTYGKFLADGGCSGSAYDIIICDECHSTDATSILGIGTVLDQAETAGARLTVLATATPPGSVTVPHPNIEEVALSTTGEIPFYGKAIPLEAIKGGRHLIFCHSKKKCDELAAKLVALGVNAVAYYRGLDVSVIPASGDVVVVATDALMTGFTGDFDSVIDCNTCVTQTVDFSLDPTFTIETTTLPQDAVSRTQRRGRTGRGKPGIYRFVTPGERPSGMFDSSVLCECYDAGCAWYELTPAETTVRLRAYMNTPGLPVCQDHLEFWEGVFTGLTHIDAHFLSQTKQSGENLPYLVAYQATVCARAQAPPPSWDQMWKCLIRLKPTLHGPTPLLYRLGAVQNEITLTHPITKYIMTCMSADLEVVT", "assay": "PubChem AID 2173", "set-up": "species or system Hepacivirus hominis"}, "[4]": {"biological_target": "Induced myeloid leukemia cell differentiation protein Mcl-1 (Homo sapiens, UniProt Q07820)", "sequence (Q07820 whole entry)": "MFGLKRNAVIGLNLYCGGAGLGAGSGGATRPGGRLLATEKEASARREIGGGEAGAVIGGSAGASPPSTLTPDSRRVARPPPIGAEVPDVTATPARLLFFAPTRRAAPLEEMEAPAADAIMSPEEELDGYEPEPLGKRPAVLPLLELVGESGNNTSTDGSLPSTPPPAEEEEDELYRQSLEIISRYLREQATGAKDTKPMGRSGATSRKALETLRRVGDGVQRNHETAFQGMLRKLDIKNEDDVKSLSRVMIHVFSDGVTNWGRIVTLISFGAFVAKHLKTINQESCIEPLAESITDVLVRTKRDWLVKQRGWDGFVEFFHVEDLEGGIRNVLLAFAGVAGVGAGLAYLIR", "format": "functional"}, "[5]": {"biological_target": "Intestinal-type alkaline phosphatase (Homo sapiens, UniProt P09923)", "assay": "activation of human intestinal alkaline phosphatase – biochemical, dose response (AID 488873)", "format": "functional"}, "[6]": {"biological_target": "Intestinal-type alkaline phosphatase (Mus musculus, UniProt P24822)", "assay": "mouse intestinal alkaline phosphatase activators, dose response, biochemical, luminescence, uHTS hits (AID 488783)", "format": "functional"}, "[7]": {"biological_target": "T2, Alkaline phosphatase, tissue-nonspecific isozyme (Homo sapiens, UniProt P05186)", "T2 sequence (P05186 whole entry)": "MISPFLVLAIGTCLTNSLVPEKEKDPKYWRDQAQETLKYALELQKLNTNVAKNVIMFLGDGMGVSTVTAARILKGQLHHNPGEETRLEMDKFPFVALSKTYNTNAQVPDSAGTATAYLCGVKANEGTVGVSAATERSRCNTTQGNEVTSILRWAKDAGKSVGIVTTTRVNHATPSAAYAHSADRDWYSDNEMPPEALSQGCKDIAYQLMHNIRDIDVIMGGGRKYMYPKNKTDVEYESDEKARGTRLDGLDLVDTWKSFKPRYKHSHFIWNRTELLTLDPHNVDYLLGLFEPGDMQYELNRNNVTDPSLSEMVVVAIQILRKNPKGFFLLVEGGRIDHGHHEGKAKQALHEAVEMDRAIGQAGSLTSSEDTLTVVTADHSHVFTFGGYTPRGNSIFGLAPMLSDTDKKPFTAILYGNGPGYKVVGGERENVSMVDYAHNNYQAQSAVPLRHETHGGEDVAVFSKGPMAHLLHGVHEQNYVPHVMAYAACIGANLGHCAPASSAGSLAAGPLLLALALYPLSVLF", "assay": "TNAP enzyme activators, dose response, selectivity assay for mouse IAP activator project, biochemical, TNAP isozyme, mouse IAP uHTS hits (AID 488880)", "format": "functional"}, "[8]": {"biological_target": "1-phosphatidylinositol 4,5-bisphosphate phosphodiesterase gamma-1 (Homo sapiens, UniProt P19174)", "sequence (P19174 whole entry)": "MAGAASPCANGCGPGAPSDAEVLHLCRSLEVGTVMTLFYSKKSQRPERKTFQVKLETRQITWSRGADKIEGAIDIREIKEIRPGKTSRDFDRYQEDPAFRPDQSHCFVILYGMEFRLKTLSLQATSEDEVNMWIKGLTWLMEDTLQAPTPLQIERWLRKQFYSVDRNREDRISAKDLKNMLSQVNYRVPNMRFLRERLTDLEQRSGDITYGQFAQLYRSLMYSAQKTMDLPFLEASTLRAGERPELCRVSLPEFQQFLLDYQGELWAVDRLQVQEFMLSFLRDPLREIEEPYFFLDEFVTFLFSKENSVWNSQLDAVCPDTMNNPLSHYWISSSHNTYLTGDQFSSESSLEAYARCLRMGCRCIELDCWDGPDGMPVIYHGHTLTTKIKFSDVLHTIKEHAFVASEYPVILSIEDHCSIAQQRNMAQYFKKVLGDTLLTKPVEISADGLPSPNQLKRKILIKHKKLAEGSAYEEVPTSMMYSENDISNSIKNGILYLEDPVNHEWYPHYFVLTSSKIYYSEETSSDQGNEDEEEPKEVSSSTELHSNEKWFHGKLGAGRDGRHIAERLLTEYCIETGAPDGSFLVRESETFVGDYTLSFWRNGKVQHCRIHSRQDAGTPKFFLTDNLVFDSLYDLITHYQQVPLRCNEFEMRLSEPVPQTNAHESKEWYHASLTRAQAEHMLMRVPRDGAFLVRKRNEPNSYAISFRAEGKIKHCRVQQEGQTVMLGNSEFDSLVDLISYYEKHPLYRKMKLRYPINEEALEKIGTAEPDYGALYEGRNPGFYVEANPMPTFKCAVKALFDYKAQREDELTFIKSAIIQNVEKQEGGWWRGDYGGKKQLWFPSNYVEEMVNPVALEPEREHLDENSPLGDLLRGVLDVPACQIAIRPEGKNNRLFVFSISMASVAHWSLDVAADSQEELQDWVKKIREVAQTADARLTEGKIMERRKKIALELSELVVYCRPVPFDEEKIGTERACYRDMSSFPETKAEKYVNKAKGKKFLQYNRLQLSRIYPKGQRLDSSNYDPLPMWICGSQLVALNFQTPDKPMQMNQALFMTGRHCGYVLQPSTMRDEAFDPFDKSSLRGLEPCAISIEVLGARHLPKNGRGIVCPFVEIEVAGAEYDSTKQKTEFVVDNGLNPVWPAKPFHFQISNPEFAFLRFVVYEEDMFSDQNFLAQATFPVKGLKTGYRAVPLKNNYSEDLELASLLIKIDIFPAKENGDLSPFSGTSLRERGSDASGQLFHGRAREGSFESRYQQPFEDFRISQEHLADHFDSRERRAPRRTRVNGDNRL", "assay": "Counterscreen for inhibitors of phospholipase C isozymes (PLC-B3): Fluorescence-based biochemical high throughput dose response assay to identify inhibitors of phospholipase C isozymes (PLC-gamma1)."}, "[9]": {"biological_target": "1-phosphatidylinositol 4,5-bisphosphate phosphodiesterase beta-3 (Homo sapiens, UniProt Q01970)", "assay": "Fluorescence-based biochemical high throughput dose response assay to identify inhibitors of phospholipase C isozymes (PLC-B3)."}, "CAAX prenyl protease 2": {"biological_target": "CAAX prenyl protease 2 (Saccharomyces cerevisiae S288c, UniProt Q03530)", "format": "biochemical"}, "CAAX prenyl protease 1": {"biological_target": "CAAX prenyl protease 1 (Saccharomyces cerevisiae S288c, UniProt P47154)", "sequence (P47154 whole entry)": "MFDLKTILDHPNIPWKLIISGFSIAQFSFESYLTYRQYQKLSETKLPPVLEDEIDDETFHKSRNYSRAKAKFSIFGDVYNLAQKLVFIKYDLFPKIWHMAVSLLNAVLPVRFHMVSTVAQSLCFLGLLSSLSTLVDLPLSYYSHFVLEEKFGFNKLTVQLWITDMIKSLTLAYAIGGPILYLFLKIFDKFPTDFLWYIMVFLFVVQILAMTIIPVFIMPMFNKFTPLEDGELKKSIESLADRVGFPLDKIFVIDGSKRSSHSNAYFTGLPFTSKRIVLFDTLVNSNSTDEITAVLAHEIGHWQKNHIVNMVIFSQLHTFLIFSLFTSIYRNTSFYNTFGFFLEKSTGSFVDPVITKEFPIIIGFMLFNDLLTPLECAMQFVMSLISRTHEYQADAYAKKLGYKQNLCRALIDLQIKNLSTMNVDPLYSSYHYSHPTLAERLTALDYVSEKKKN", "assay": "Ste24 protease inhibitors, dose response, biochemical, S. cerevisiae, plate reader, cherry-pick (AID 488815)"}, "[10]": {"biological_target": "Lysine-specific demethylase 4A (Homo sapiens, UniProt O75164)", "sequence (O75164 whole entry)": "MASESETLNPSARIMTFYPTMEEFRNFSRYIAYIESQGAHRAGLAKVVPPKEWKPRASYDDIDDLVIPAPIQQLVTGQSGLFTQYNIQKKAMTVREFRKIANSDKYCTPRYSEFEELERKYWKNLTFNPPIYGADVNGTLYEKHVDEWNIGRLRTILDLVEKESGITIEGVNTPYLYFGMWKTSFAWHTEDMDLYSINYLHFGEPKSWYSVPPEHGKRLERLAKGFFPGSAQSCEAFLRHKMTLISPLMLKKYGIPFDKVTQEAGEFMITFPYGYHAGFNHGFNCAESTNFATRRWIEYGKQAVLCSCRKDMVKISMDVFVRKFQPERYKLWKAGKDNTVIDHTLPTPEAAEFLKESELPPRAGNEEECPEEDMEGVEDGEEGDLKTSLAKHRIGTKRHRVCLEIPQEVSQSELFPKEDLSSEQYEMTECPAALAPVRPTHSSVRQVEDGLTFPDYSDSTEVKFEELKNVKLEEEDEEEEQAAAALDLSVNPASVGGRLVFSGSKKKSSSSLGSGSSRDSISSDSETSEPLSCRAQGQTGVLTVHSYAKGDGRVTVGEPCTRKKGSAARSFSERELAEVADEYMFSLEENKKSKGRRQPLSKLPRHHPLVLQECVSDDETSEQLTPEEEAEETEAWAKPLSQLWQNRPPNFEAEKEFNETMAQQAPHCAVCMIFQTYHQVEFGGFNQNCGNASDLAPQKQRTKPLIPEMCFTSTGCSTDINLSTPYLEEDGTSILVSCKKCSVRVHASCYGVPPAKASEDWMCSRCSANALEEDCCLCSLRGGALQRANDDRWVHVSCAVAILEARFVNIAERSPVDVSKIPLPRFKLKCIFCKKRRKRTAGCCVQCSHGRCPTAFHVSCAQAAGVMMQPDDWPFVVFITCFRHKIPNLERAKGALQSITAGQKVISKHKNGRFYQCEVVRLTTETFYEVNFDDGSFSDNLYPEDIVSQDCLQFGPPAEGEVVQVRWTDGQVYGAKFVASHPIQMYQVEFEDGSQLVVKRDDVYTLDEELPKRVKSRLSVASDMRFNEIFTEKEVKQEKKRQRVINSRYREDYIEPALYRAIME", "assay": "JMJD2A histone demethylase inhibitors, dose response, selectivity assay for GASC-1 inhibitor project, biochemical, DELFIA europium, cherry-picked samples (AID 488840)"}, "[11]": {"biological_target": "T3, Lysine-specific demethylase 4C (Homo sapiens, UniProt Q9H3R0)", "T3 sequence (Q9H3R0 whole entry)": "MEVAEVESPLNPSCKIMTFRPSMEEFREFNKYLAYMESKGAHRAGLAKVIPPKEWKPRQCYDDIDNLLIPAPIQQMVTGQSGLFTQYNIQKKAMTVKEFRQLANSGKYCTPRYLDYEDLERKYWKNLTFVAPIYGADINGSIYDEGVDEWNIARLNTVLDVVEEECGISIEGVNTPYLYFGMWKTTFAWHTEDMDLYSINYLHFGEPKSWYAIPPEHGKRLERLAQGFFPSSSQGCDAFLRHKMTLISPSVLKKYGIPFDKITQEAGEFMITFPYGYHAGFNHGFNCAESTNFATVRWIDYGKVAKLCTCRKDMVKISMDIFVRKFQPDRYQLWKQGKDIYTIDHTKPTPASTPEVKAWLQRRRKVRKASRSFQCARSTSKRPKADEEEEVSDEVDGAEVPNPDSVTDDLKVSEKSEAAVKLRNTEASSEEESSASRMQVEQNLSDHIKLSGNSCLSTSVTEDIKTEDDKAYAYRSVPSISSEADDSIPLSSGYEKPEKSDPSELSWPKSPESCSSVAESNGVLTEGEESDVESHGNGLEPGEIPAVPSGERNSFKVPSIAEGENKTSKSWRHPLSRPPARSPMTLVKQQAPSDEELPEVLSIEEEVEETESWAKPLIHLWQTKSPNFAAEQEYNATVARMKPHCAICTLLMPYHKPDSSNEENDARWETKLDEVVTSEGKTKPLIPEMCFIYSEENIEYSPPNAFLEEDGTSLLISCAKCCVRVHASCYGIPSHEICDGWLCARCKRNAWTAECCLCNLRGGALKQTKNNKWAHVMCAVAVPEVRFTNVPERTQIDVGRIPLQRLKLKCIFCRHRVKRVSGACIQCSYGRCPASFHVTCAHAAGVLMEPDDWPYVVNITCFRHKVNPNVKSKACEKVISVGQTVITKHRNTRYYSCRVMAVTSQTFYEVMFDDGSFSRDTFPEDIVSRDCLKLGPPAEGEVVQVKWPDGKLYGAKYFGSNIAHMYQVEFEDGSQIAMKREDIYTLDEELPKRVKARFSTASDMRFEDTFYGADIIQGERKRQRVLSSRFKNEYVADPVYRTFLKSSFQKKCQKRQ", "assay": "GASC-1 (JMJD2C) histone demethylase inhibitors, dose response, biochemical, DELFIA europium, cherry-picked samples (AID 488835)", "format": "functional"}}, "note": "Calls of active or inactive are those of the source.", "data": [{"smiles": "CCCN(CCC)Cc1c(C(=O)NN=Cc2c[nH]c3ccccc23)nnn1-c1nonc1N", "values": [{"measurement": "IC50", "setting": "Cannabinoid receptor 2 [1]", "result": "> 32 µM (inactive)"}, {"measurement": "EC50", "setting": "Cannabinoid receptor 2 [2]", "result": "> 32 µM (inactive)"}, {"measurement": "EC50", "setting": "[3]", "result": "0.633 µM (active)"}, {"measurement": "IC50", "setting": "Cannabinoid receptor 1", "result": "> 32 µM (inactive)"}]}, {"smiles": "O=C1/C(=C/C=C/c2ccco2)SC(=S)N1c1ccc(O)cc1", "values": [{"measurement": "IC50", "setting": "NS3", "result": "5.35 µM (active)"}, {"measurement": "IC50", "setting": "[4]", "result": "1.72 µM (active)"}, {"measurement": "EC50", "setting": "[5]", "result": "84.7 µM (active)"}, {"measurement": "EC50", "setting": "[6]", "result": "59 µM (active)"}, {"measurement": "EC50", "setting": "[7]", "result": "91.3 µM (active)"}, {"measurement": "IC50", "setting": "[8]", "result": "> 123 µM (inactive)"}, {"measurement": "IC50", "setting": "[9]", "result": "> 123 µM (inactive)"}]}, {"smiles": "COc1ccc(N2CCN(C(=O)c3cc(-c4cccs4)nc4ccccc34)CC2)cc1", "values": [{"measurement": "AC50", "setting": "CAAX prenyl protease 2", "result": "4.06 µM (active)"}, {"measurement": "AC50", "setting": "CAAX prenyl protease 1", "result": "47.6 µM (active)"}]}, {"smiles": "CCCCOc1ccc(CC2C(=O)N(C)C(=O)N(C)C2=O)cc1", "values": [{"measurement": "AC50", "setting": "[10]", "result": "12.5 µM (active)"}, {"measurement": "AC50", "setting": "[11]", "result": "1.76 µM (active)"}]}]}
